Laboratory results published in patent publication EP4268823A1, “COMPOUND FOR TREATING NEUROINFLAMMATION” (Universitätsklinikum Hamburg-Eppendorf, priority 2022, dated 2023).

Key:
[1] = test system: primary neuronal cultures; test: Cytosolic calcium imaging of glutamate-exposed neuronal cultures; type: cell-based, mouse; conditions: UNC0642 pre-treatment plus ferroptosis inhibitor (ferrostatin-1)
Protocol: (§1) For primary cortical cultures pregnant C57BL/6J, or G9afl/fl;Snap25-Cre mice were euthanized. To ensure comparability between genotypes, only embryos from heterozygous breeding's were used. Brainstem tissue of each embryo for genotyping was reserved and cortices were isolated, dissociated and cells were plated at a density of 1 × 10^5 cells per 1 cm^2 on poly-D-lysine-coated wells (5 µM Sigma-Aldrich, cat. no. A-003-M). If not stated otherwise, cells were maintained in neurobasal plus medium (supplemented with B27 plus, penicillin, streptomycin and L-glutamine; Gibco, cat. no. A3582901) at 37°C, 5% CO^2 and a relative humidity of 98%, and treated with 1 µM cytarabine (Sigma-Aldrich, cat. no. BP383) at 1 day in vitro (div) to inhibit glial cell proliferation. If no cytarabine was applied cells were maintained in PNBM medium (supplemented with neural cell survival factor, gentamycin and L-glutamine; Lonza). Throughout, cultures after 14-23 div were used for experiments. G9a inhibitor UNC0642 was used in a concentration of 1 µM and cultures were pre-treated 24 hours before further experimental procedures.
Primary neuronal cultures were seeded on Ibidi 60 µ-Dish Quad (cat. No. 80411) plates. Cultures were infected with an AAV7 containing pAAV-Syn-GCamp6f-WPRE-SV40 (86) (Addgene 100837) at 7-10 div with a 20,000-fold multiplicity of infection (MOI). AAV particles were produced according to the standard procedures of the UKE vector facility. Images were acquired with a confocal LSM 700 laser scanning confocal microscope (Zeiss) every 0.48 seconds with a 20× magnification in an imaging chamber maintaining 37 °C and 5% CO2. Infected cultures were imaged in the respective culture medium. Before applying the indicated chemicals, 5-10 min of baseline activity was first recorded. At the end of the recording, 8 µM ionomycin was applied to induce the maximum cellular calcium response that was used for normalization. For data analysis, mean fluorescence values of every cell were measured using Fiji software (NIH) and normalized to the maximal calcium response after ionomycin challenge. For each cell, mean AUC of the calcium response was calculated using a custom R script.

[2] = test system: glutathione; test: GSH-Glo glutathione measurement after glutamate; type: cell-based, mouse; conditions: primary cortical neurons, glutamate 2 hours, UNC0642-treated
Protocol: as §1
GSH-Glo Glutathione assay (Promega) was used as described by the manufacturer. Primary cortical neurons were cultured in a 96-well plate and stimulated with glutamate for 2 hours. […] After 15 min, luminescence was detected at a Spark 10M multimode microplate reader (Tecan).

[3] = test system: ferroptosis-related genes; test: mRNA expression of ferroptosis-related genes in erastin-treated hiPSC-neurons; type: cell-based; conditions: erastin-treated human neurons ± UNC0642
From the text: Human iPSCs (ZIPi013-B) (83) were maintained under feeder-free conditions on Matrigel (Corning)-coated plates in mTeSR1 medium (Stem Cell Technologies, cat. no. 85850). For neuronal induction, iPSCs were dissociated with Accutase and seeded at a density of 3 × 10^6 cells per well on AggreWell800 plates (10,000 cells per embryoid body (EB), Stem Cell Technologies) in SMADi Neural Induction Medium (SMADi NIM, Stem Cell Technologies, cat. no. 08582) supplemented with […] (Stem Cell Technologies, cat. no. 72302). On day 6, EBs were harvested and cultivated on Matrigel-coated plates in SMADi NIM for 12 days. Newly formed neural rosettes were manually picked and cultured for another 4 days. In order to release neural precursor cells (NPCs), neural rosettes were dissociated with Accutase and were maintained for several passages at high density in Neural Progenitor Medium (Stem Cell Technologies, cat. no. 05833) on Matrigel-coated plates. HiPSC-derived NPCs were differentiated into neurons as previously described (84, 85) with some modifications. Briefly, NPCs were seeded at a density of 1 × 10^5 cells per cm^2 in Neural Progenitor Medium onto Matrigel-coated plates. […]
RNA was extracted using RNeasy Mini Kit (Qiagen) and subsequently reverse-transcribed to complementary DNA with the RevertAid H Minus First Strand cDNA Synthesis Kit (Thermo Fisher Scientific) according to the manufacturer's instructions. Gene expression was analyzed by real-time PCR performed in an ABI Prism 7900 HT Fast Real-Time PCR System (Applied Biosystems) using TaqMan Gene Expression Assays (Thermo Fisher Scientific). Gene expression was calculated as 2-ΔCt relative to Tbp as the endogenous control.

[4] = test system: primary cortical cultures; test: RealTime-Glo cell viability assay, glutamate excitotoxicity; type: cell-based, mouse; conditions: G9a-deficient neurons from G9afl/fl;Snap25-Cre mice treated with UNC0642; readout not stated
Protocol: as §1, with “G9a inhibitor UNC0642 was used in a concentration of 1 µM and cultures were pre-treated 24 hours before further experimental procedures.” left out
RealTime-Glo (Promega, cat. no. G9711) MT cell viability substrate and NanoLuc Enzyme was mixed together, added to neuronal cultures and incubated for 5 hours for equilibration of luminescence signal before respective treatments were applied. Luminescence was acquired with a Spark 10M multimode microplate reader (Tecan) at 37°C and 5% CO2 every 30 min over a total time period of 24 hours. […]

COc1cc2c(NC3CCN(C(C)C)CC3)nc(N3CCC(F)(F)CC3)nc2cc1OCCCN1CCCC1 [UNC0642, 2-(4,4-difluoropiperidin-1-yl)-6-methoxy-N-[1-(propan-2-yl)piperidin-4-yl]-7-[3-(pyrrolidin-1-yl)propoxy]quinazolin-4-amine]
potentiation of rescue effects of ferroptosis inhibition on glutamate-induced calcium overload [1]: did not further potentiate the rescue effects of ferroptosis inhibition | glutathione levels [2]: partial rescue of glutathione levels | mRNA expression of GPX4 [3]: significant upregulation | mRNA expression of Gclc [3]: significant upregulation | mRNA expression of SLC7A11 [3]: highly upregulated | additional rescue effect during glutamate stress [4]: no additional rescue effect
